From patent US6541208B1, “Diagnostic method for distinguishing HIV-associated dementia from other forms of dementia” (University of Maryland Biotechnology Institute, priority 1998, dated 2003)

Tests used:
[1] = tested on: astrocytic MCP-1 expression; test: Northern blot analysis of MCP-1 RNA in stimulated human astrocytes; type: cell-based
Text: FIG. 1A—Total RNA was extracted from T lymphoblastoid HUT 78 cells (ATCC), and from variously treated human astrocytes. Ten μg per lane were then run on a 1% agarose-6% formaldehyde gel. Following transfer of RNA to nitrocellulose, the blot was probed with the full-length cDNA for MCP-1, and subsequently, RANTES. RNA from untreated astrocytes was run in lanes 2 and 4. […] Astrocytic expression of RANTES was not detected.
FIG. 1B—Similar experience except that RNA from HUT 78 cells (lane 1) was compared to RNA from astrocytes that were unstimulated (lane 2) or stimulated for 2 hr with 100 nM Tat (lane 3), 25 μM TPCK followed by 100 nM Tat (lane 4) or 25 μM TPCK (lane 5).
Brain tissue from 12-14 wk human fetuses was obtained in accordance with NIH guidelines. The tissue was mechanically disrupted by aspiration through a 19-gauge needle, washed in Eagle's minimal essential medium (EMEM) and then distributed into tissue culture flasks. Cells were maintained in EMEM containing 10% fetal bovine serum, 2 mM L-glutamine and 5 μg/ml gentamicin. Several days later, flasks were placed into an orbital incubator shaker at 37° C. and 210 rpm for 6 hr. Non-adherent cells were removed. A portion of the adherent cells were later stained with an antibody to glial fibrallary acidic protein and only those cultures which were >95% positive were used. […]

[2] = tested on: MCP-1 activity; settings: point mutations Thr-10 to Arg and Tyr-13 to Ile; cited from earlier work

Compound: Cc1ccc(S(=O)(=O)N[C@@H](Cc2ccccc2)C(=O)CCl)cc1 [TPCK, n-tosli-L-phenylalanine chloromethyl ketone, reference compound]
- effect on Tat-induced increase in MCP-1 encoding RNA ([1]; 25 μM TPCK followed by 100 nM Tat, 2 hr): inhibited

Compound: interleukin-1β: cytokine used at 5 ng/ml to stimulate astrocytes [reference compound]
- astrocytic MCP-1 expression (MCP-1 encoding RNA) ([1]; 5 ng/ml interleukin-1β, 4 hr stimulation, human astrocytes): increase in astrocytic MCP-1 expression

Compound: MCP-1 protein with point mutations of Thr-10 to Arg and Tyr-13 to Ile: mutant MCP-1 protein from Beal et al., contemplated as MCP-1 antagonist
- MCP-1 activity of the mutant protein [2]: greatly reduced MCP-1 activity
